Source: US11897862B2 (Gilead Sciences, Inc., priority 2022, dated 2024)

Experiments:
IKZF1 = target: T1, IKZF1 (Homo sapiens, UniProt Q13422+Q96SW2); experiment: HEK293 HiBiT in vitro degradation of IKZF1; format: cell-based; conditions: for DC50: 18-24 hr incubation, normalized to DMSO control, read-out: IKZF1 EC50; for Dmax: HEK293, HEK293 HiBiT
T1 construct: expressed in transfected cells
In short: (§1)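 Stable HEK293 reporter pools, each with one integrated tet-inducible copy of a HiBiT-tagged target, were induced with doxycycline overnight at 37 °C. After 18-24 h with compound dilution series, Nano-Glo lysis and luminescence yielded EC50 and Dmax values.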

IKZF2 = IKZF2 (Homo sapiens, UniProt Q96SW2+Q9UKS7); experiment: HEK293 HiBiT in vitro degradation of IKZF2; format: cell-based; parameters: expressed in transfected cells; conditions: for Dmax: HEK293, HEK293 HiBiT; for DC50: 18-24 hr incubation, normalized to DMSO control, read-out: IKZF2 EC50
In short: as §1

[1] = maximum degradation at the highest concentration tested
[2] = HEK293 HiBiT, maximum degradation at the highest concentration tested

T1 sequence (Q13422 whole entry): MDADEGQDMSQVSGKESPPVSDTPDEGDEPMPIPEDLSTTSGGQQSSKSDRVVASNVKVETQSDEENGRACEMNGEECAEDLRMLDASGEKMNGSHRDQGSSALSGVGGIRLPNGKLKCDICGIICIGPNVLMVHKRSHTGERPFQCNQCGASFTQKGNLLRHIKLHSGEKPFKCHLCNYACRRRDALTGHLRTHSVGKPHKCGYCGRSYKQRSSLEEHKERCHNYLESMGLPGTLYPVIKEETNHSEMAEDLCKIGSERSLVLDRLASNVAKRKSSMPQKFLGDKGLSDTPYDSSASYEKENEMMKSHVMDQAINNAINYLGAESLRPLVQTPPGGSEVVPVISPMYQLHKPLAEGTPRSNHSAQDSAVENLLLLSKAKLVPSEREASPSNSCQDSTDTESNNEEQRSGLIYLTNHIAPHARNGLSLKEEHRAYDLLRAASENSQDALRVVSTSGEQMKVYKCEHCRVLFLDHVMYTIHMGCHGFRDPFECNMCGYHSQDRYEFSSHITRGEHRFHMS
T1 sequence (Q96SW2 whole entry): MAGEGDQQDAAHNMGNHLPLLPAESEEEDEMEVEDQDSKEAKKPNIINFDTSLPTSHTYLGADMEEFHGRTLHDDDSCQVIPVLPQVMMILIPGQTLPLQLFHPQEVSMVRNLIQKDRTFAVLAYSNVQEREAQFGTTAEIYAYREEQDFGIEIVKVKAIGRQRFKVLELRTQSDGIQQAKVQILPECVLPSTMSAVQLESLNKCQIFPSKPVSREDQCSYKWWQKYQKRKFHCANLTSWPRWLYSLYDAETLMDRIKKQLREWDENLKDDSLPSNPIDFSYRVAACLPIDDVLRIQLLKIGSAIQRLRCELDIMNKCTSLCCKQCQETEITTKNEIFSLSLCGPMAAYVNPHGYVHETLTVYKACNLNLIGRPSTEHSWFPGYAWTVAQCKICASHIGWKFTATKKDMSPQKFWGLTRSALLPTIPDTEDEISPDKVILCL
T1 sequence (Q16531 whole entry partner): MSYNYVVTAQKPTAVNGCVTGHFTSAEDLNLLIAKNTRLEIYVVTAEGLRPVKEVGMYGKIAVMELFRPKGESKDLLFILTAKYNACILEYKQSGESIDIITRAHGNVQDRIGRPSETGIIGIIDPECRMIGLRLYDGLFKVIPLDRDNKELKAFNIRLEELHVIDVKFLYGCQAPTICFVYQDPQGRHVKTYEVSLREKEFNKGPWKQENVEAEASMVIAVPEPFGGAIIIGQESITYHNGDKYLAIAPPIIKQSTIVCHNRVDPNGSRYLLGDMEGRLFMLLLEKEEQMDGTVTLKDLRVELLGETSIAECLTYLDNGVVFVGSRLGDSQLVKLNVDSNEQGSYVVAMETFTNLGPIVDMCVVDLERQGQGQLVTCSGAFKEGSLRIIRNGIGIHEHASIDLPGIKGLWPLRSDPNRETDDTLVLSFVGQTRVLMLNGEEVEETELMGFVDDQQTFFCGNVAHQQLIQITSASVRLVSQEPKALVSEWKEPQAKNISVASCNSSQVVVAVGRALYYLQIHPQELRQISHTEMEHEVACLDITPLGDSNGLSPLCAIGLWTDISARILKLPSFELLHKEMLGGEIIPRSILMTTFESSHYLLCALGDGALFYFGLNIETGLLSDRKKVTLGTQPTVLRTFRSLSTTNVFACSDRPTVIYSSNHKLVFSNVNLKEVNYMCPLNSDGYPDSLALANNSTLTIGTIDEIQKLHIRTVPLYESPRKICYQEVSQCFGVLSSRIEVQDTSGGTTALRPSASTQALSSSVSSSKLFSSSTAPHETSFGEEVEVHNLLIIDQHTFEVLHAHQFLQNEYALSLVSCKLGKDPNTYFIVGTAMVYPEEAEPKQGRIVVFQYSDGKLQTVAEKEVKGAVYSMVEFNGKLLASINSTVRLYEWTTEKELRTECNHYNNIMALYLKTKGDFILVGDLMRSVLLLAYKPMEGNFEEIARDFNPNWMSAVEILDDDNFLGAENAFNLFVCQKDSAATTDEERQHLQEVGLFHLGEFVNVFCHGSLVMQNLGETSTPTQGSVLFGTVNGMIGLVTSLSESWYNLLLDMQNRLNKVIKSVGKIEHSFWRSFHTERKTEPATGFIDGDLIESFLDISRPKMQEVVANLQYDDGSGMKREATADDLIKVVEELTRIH
IKZF2, sequence (Q9UKS7 1-500 isoform Q9UKS7-2): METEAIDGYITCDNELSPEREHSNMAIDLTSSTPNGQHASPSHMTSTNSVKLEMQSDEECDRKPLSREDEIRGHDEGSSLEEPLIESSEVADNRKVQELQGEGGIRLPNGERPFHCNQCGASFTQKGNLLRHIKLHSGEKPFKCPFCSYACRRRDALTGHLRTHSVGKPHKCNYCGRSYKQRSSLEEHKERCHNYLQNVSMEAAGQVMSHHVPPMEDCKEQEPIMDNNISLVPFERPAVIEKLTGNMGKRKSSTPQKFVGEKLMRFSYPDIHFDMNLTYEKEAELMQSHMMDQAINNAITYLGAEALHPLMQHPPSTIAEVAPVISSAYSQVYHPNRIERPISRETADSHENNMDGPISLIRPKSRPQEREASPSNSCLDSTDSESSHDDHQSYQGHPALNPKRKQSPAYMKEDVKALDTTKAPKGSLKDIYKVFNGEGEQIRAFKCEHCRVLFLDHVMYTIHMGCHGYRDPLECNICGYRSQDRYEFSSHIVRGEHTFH
IKZF2, sequence (Q96SW2 whole entry): as the sequence (Q96SW2 whole entry) above
IKZF2, sequence (Q16531 whole entry partner): as the sequence (Q16531 whole entry partner) above

| SMILES | DC50 (IKZF1; HEK293 HiBiT) [nM] | Dmax (IKZF2; [1]) [%] | DC50 (IKZF2; HEK293 HiBiT) [nM] | Dmax (IKZF1; [1]) [%] | IKZF1 Dmax (IKZF1; [2]) [%] | IKZF2 Dmax (IKZF2; [2]) [%] |
| --- | --- | --- | --- | --- | --- | --- |
| CC(COc1ccccc1)N[C@H]1CCCC[C@@H]1Cc1ccc2c(c1)CN(C1CCC(=O)NC1=O)C2=O (some centres unmarked) [Example 77] | > 1000 | 90 | 11 |  |  |  |
| CCOCC(C)N[C@H]1CCCC[C@@H]1Cc1ccc2c(c1)CN(C1CCC(=O)NC1=O)C2=O (some centres unmarked) [Example 78] | > 1000 | 92 | 16 |  |  |  |
| O=C1CCC(N2Cc3cc(C[C@H]4CCCC[C@@H]4NC4CC5(COC5)C4)ccc3C2=O)C(=O)N1 (stereo partly drawn) [Example 80, 3-(5-(((1R,2S)-2-((2-oxaspiro[3.3]heptan-6-yl)amino)cyclohexyl)methyl)-1-oxoisoindolin-2-yl)piperidine-2,6-dione] | 299 | 95 | 33 | 32 |  |  |
| O=C1CCC(N2Cc3c(ccc(C[C@H]4CCCC[C@@H]4NCC4CC(F)(F)C4)c3F)C2=O)C(=O)N1 (stereo partly drawn) [Example 81, 3-(5-(((1R,2S)-2-(((3,3-difluorocyclobutyl)methyl)amino)cyclohexyl)methyl)-4-fluoro-1-oxoisoindolin-2-yl)piperidine-2,6-dione] | 28 | 96 | 4 | 41 |  |  |
| O=C1CCC(N2Cc3cc(C[C@H]4CCCC[C@@H]4NCC45CCC(CC4)CC5)ccc3C2=O)C(=O)N1 (stereo partly drawn) [Example 83, 3-(5-(((1R,2S)-2-((bicyclo[2.2.2]octan-1-ylmethyl)amino)cyclohexyl)methyl)-1-oxoisoindolin-2-yl)piperidine-2,6-dione] | > 1000 | 92 | 37 |  |  |  |
| O=C1CCC(N2Cc3cc(C[C@H]4CCCC[C@@H]4NC4CCC5(CC4)COC5)ccc3C2=O)C(=O)N1 (stereo partly drawn) [Example 86, 3-(5-(((1R,2S)-2-((2-oxaspiro[3.5]nonan-7-yl)amino)cyclohexyl)methyl)-1-oxoisoindolin-2-yl)piperidine-2,6-dione] | 141 | 97 | 12 | 34 |  |  |
| O=C1CCC(N2Cc3c(ccc(C[C@H]4CCCC[C@@H]4NC4CCCCC4)c3F)C2=O)C(=O)N1 (stereo partly drawn) [Example 88, 3-(5-(((1R,2S)-2-(cyclohexylamino)cyclohexyl)methyl)-4-fluoro-1-oxoisoindolin-2-yl)piperidine-2,6-dione] | 101 | 99 | 1 | 38 |  |  |
| CC(C)(C)CCN(CCC(C)(C)C)[C@H]1CCCC[C@@H]1Cc1ccc2c(c1F)CN(C1CCC(=O)NC1=O)C2=O (stereo partly drawn) [Example 90, 3-(5-(((1R,2S)-2-(bis(3,3-dimethylbutyl)amino)cyclohexyl)methyl)-4-fluoro-1-oxoisoindolin-2-yl)piperidine-2,6-dione] | > 1000 | 75 | 69 |  |  |  |
| O=C1CCC(N2Cc3cc(C[C@H]4CCCC[C@@H]4NC4CCS(=O)(=O)CC4)ccc3C2=O)C(=O)N1 (stereo partly drawn) [Example 91, 3-(5-(((1R,2S)-2-((1,1-dioxidotetrahydro-2H-thiopyran-4-yl)amino)cyclohexyl)methyl)-1-oxoisoindolin-2-yl)piperidine-2,6-dione] | 160 | 97 | 17 | 47 |  |  |
| O=C1CCC(N2Cc3cc(C[C@H]4OCCC[C@@H]4NC4CCC(F)(F)CC4)ccc3C2=O)C(=O)N1 (stereo partly drawn) [Example 92, 3-(5-(((2R,3S)-3-((4,4-difluorocyclohexyl)amino)tetrahydro-2H-pyran-2-yl)methyl)-1-oxoisoindolin-2-yl)piperidine-2,6-dione] | > 1000 | 82 | 44 |  |  |  |
| O=C1CCC(N2Cc3cc(C[C@H]4CCCC[C@@H]4NCCc4ccccc4)ccc3C2=O)C(=O)N1 (stereo partly drawn) [Example 93, 3-(1-oxo-5-(((1R,2S)-2-(phenethylamino)cyclohexyl)methyl)isoindolin-2-yl)piperidine-2,6-dione] | 39 | 91 | 23 | 22 |  |  |
| O=C1CCC(N2Cc3c(ccc(C[C@H]4CCCC[C@@H]4NCC45CC(C4)C5)c3F)C2=O)C(=O)N1 (some centres unmarked) [Example 96] | 173 | 95 | 9 | 35 |  |  |
| O=C1CCC(N2Cc3c(ccc(C[C@H]4CCCC[C@@H]4NCC4CCC(F)(F)CC4)c3F)C2=O)C(=O)N1 (some centres unmarked) [Example 99] | 68 | 94 | 14 | 37 |  |  |
| CC1(C)CC2(CC(N[C@H]3CCCC[C@@H]3Cc3ccc4c(c3)CN(C3CCC(=O)NC3=O)C4=O)C2)C1 (some centres unmarked) [Example 100] | 61 | 94 | 12 | 34 |  |  |
| CC(N[C@H]1CCCC[C@@H]1Cc1ccc2c(c1)CN(C1CCC(=O)NC1=O)C2=O)C1CC1 (some centres unmarked) [Example 102] | 242 | 96 | 6 | 27 |  |  |
| O=C1CCC(N2Cc3cc(C[C@H]4CCCC[C@@H]4NCCC(F)(F)F)ccc3C2=O)C(=O)N1 (some centres unmarked) [Example 104] | 75 | 92 | 16 | 37 |  |  |
| O=C1CCC(N2Cc3cc(C[C@H]4CCCC[C@@H]4NC4CCCC[C@@H]4F)ccc3C2=O)C(=O)N1 (some centres unmarked) [Example 105] | 76 | 96 | 4 | 31 |  |  |
| O=C1CCC(N2Cc3cc(C[C@H]4CCCC[C@@H]4NC4CCCC[C@@H]4F)ccc3C2=O)C(=O)N1 (some centres unmarked) [Example 106] | 79 |  | 10 |  | 24 | 95 |
| O=C1CCC(N2Cc3cc(C[C@H]4CCCC[C@@H]4NC4CCCC[C@H]4F)ccc3C2=O)C(=O)N1 (some centres unmarked) [Example 107] | 81 | 96 | 3 | 36 |  |  |

| SMILES | DC50 (IKZF1; HEK293 HiBiT) [nM] | Dmax (IKZF2; [1]) [%] | DC50 (IKZF2; HEK293 HiBiT) [nM] | Dmax (IKZF1; [1]) [%] | IKZF1 Dmax (IKZF1; [2]) [%] | IKZF2 Dmax (IKZF2; [2]) [%] |
| --- | --- | --- | --- | --- | --- | --- |
| CC(=O)N1CCC(N[C@H]2CCCC[C@@H]2Cc2ccc3c(c2)CN(C2CCC(=O)NC2=O)C3=O)CC1 (some centres unmarked) [Example 108] | > 1000 | 96 | 55 |  |  |  |
| O=C1CCC(N2Cc3cc(C[C@H]4CCCC[C@@H]4NC4CCCCC4(F)F)ccc3C2=O)C(=O)N1 (some centres unmarked) [Example 111] | > 1000 | 81 | 91 |  |  |  |
| O=C1CCC(N2Cc3cc(C[C@H]4CCCC[C@@H]4NC4CC5CCC(C4)O5)ccc3C2=O)C(=O)N1 (some centres unmarked) [Example 112] | 56 | 97 | 3 | 30 |  |  |
| CN(C1CCC(F)(F)CC1)[C@H]1CCCC[C@@H]1Cc1ccc2c(c1)CN(C1CCC(=O)NC1=O)C2=O (stereo partly drawn) [Example 123, 3-(5-(((1R,2S)-2-((4,4-difluorocyclohexyl)(methyl)amino)cyclohexyl)methyl)-1-oxoisoindolin-2-yl)piperidine-2,6-dione] | > 1000 | 88 | 26 |  |  |  |
| O=C1CCC(N2Cc3cc(C[C@H]4CCOC[C@@H]4NC4CCC(F)(F)CC4)ccc3C2=O)C(=O)N1 (some centres unmarked) [Example 126] | > 1000 | 80 | 114 |  |  |  |
| CC(CF)N[C@H]1CCCC[C@@H]1Cc1ccc2c(c1)CN(C1CCC(=O)NC1=O)C2=O (some centres unmarked) [Example 127] | 15 | 68 | 15 | 72 |  |  |
| CCCCN[C@H]1CCCC[C@@H]1Cc1ccc2c(c1)CN(C1CCC(=O)NC1=O)C2=O (some centres unmarked) [Example 128] | 94 | 98 | 18 | 19 |  |  |
| CC(N[C@H]1CCCC[C@@H]1Cc1ccc2c(c1)CN(C1CCC(=O)NC1=O)C2=O)C(F)F (some centres unmarked) [Example 130] | > 1000 | 76 | 148 |  |  |  |
| O=C1CCC(N2Cc3cc(C[C@H]4CCCC[C@@H]4NC4CCc5ccccc54)ccc3C2=O)C(=O)N1 (some centres unmarked) [Example 131] | 78 | 96 | 4 | 45 |  |  |
| O=C1CCC(N2Cc3cc(C[C@H]4CCCC[C@@H]4NC4CC5CCC5C4)ccc3C2=O)C(=O)N1 (some centres unmarked) [Example 132] | 66 | 97 | 4 | 45 |  |  |
| CC(C)(C#N)CCN[C@H]1CCCC[C@@H]1Cc1ccc2c(c1)CN(C1CCC(=O)NC1=O)C2=O (some centres unmarked) [Example 133] | 132 | 96 | 32 | 30 |  |  |
| COC(C)(C)CCN[C@H]1CCCC[C@@H]1Cc1ccc2c(c1)CN(C1CCC(=O)NC1=O)C2=O (some centres unmarked) [Example 134] | > 1000 | 97 | 61 |  |  |  |
| O=C1CCC(N2Cc3cc(C[C@H]4CCCC[C@@H]4NCCCC(F)F)ccc3C2=O)C(=O)N1 (some centres unmarked) [Example 135] | 77 | 93 | 16 | 24 |  |  |
| O=C1CCC(N2Cc3c(ccc(C[C@H]4CCCC[C@@H]4NC4CC5CCCC5C4)c3F)C2=O)C(=O)N1 (some centres unmarked) [Example 141] | 58 | 98 | 2 | 53 |  |  |
| O=C1CCC(N2Cc3cc(C[C@H]4CCCC[C@@H]4NC4COc5ccccc5C4)ccc3C2=O)C(=O)N1 (some centres unmarked) [Example 143] | > 1000 | 94 | 33 |  |  |  |
| CC1(C)CC(N[C@H]2CCCC[C@@H]2Cc2ccc3c(c2)CN(C2CCC(=O)NC2=O)C3=O)CC(C)(C)C1 (some centres unmarked) [Example 144] | > 1000 | 97 | 7 |  |  |  |
| CC(c1ccc2c(c1)CN(C1CCC(=O)NC1=O)C2=O)[C@H]1CCCC[C@@H]1NC1CCC(F)(F)CC1 (some centres unmarked) [Example 147] | > 1000 | 75 | 37 |  |  |  |
| O=C1CCC(N2Cc3c(ccc(C[C@H]4OCCC[C@@H]4NCC4CCC(F)(F)CC4)c3F)C2=O)C(=O)N1 (some centres unmarked) [Example 149] | 45 | 71 | 46 | 36 |  |  |
| O=C1CCC(N2Cc3c(ccc(C[C@H]4OCCC[C@@H]4NCC4CC(F)(F)C4)c3F)C2=O)C(=O)N1 (some centres unmarked) [Example 150] | > 500 | 73 | 51 |  |  |  |
